{"source": "patent US20060099666A1", "about": "“Analyzer for the simultaneous enzymatic detection of closely related analytes” (Medinov, Inc., priority 2002, published 2006)", "key": {"[1]": {"molecular_target": "alcohol oxidase (Candida boidini) (Candida boidinii, UniProt Q00922)", "sequence (Q00922 2-663 limits assumed)": "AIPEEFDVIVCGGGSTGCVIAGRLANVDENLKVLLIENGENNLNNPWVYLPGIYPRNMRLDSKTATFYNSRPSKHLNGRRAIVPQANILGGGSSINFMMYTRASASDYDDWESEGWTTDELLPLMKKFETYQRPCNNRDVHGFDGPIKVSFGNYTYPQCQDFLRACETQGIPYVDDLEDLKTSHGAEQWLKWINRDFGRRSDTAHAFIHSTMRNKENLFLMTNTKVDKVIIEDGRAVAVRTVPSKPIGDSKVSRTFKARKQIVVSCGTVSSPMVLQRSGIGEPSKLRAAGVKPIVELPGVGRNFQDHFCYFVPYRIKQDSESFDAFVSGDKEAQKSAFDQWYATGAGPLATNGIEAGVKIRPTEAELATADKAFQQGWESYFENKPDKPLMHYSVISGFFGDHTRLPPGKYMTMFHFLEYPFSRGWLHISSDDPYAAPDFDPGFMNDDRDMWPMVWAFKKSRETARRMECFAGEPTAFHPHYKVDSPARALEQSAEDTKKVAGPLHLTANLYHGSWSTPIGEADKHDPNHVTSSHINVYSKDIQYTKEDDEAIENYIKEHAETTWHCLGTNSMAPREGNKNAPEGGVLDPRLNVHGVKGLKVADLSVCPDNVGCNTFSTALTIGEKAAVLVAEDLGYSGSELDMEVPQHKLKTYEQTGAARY", "conditions": "Candida boidini enzyme, electrochemistry"}, "[2]": {"tested_on": "alcohol oxidase (Hansenula sp.)", "assay": "KM by the Hanes method, electrochemistry, alcohol oxidase of Hansenula sp.", "assay_type": "biochemical", "conditions": "Hansenula sp. enzyme", "procedure": "(§1) The Michaelis-Menten constant (KM) of an enzyme can be determined in an aqueous environment from the initial reaction rate of the enzyme catalyzed reaction, by either calorimetric or electrochemical analysis. The initial reaction rate was determined using both methods, based on the results obtained for different concentrations of methanol and ethanol and various alcohol oxydases (Hansenula sp., Pichia pastoris and Candida boidinii). Using the Hanes method (diagram of the concentration/initial rate as a function of the initial concentration of the substrate in the reaction medium), the KM can be calculated, which corresponds to the origin of the straight line, opposite the abscissa."}, "[3]": {"molecular_target": "alcohol oxidase (Pichia pastoris) (Komagataella phaffii, UniProt P04842)", "conditions": "Pichia pastoris enzyme", "procedure": "as §1"}, "alcohol oxidase": {"molecular_target": "T1, alcohol oxidase (Komagataella phaffii, UniProt P04842)", "T1 construct": "purchased Sigma A-2404", "T1 sequence (P04842 1-663)": "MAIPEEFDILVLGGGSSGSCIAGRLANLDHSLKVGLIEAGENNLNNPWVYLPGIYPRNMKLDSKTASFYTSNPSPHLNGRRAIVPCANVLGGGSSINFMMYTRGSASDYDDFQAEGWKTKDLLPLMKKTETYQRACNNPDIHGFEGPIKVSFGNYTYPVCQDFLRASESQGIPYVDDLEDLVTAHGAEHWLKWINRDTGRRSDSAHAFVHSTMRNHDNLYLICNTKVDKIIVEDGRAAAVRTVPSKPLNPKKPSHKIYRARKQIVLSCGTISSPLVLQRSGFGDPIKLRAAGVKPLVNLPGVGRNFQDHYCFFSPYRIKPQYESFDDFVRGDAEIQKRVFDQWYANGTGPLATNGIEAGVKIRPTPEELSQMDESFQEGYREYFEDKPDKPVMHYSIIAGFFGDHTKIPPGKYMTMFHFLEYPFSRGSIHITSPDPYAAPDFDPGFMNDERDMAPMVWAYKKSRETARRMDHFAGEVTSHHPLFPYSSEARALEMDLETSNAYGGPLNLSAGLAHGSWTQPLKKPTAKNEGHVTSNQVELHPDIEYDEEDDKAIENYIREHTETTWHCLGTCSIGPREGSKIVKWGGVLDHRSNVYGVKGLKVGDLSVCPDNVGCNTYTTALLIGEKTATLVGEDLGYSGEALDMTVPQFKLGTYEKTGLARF", "assay": "Tests to improve the observed signals: effect of SDS on enzyme activity", "assay_type": "biochemical", "conditions": "SDS 0.1%", "procedure": "Tests aiming to improve the observed signals were carried out. Low concentrations of SDS (0.1%) allow for a uniform deposit of a sample on the surface of the working electrode, while simultaneously increasing the enzyme activity by a factor of 110%."}}, "note": "Read-outs that look alike come from different tables or passages of the source.", "data": [{"smiles": "CCO", "note": "[EtOH, ethanol]", "values": [{"measurement": "Km", "setting": "[1]; read-out: KM EtOH, [EtOH] 0.25-1.25 mM", "result": 8410, "unit": "µM"}, {"measurement": "Km", "setting": "[2]; [EtOH] 0.25-5.0 mM, read-out: KM EtOH", "result": 6000, "unit": "µM"}, {"measurement": "Km", "setting": "[3]; read-out: KM EtOH, [EtOH] 0.05-3.3 mM, colorimetry", "result": 3460, "unit": "µM"}, {"measurement": "Km", "setting": "[3]; read-out: KM EtOH, [EtOH] 0.25-5.0 mM, electrochemistry", "result": 2610, "unit": "µM"}, {"measurement": "Km", "setting": "[3]; read-out: KM EtOH, [EtOH] 2.5-10.0 mM, electrochemistry", "result": 2910, "unit": "µM"}]}, {"smiles": "CO", "note": "[MeOH, methanol]", "values": [{"measurement": "Km", "setting": "[1]; read-out: KM MeOH, [MeOH] 0.05-0.5 mM", "result": 290, "unit": "µM"}, {"measurement": "Km", "setting": "[2]; [MeOH] 0.05-2.5 mM, read-out: KM MeOH", "result": 390, "unit": "µM"}, {"measurement": "Km", "setting": "[3]; read-out: KM MeOH, [MeOH] 0.02-2.5 mM, colorimetry", "result": 640, "unit": "µM"}, {"measurement": "Km", "setting": "[3]; read-out: KM MeOH, [MeOH] 0.05-2.5 mM, electrochemistry", "result": 310, "unit": "µM"}, {"measurement": "Km", "setting": "[3]; read-out: KM MeOH, [MeOH] 0.125-1.0 mM, electrochemistry", "result": 560, "unit": "µM"}]}, {"smiles": "CCCCCCCCCCCCOS(=O)(=O)[O-].[Na+]", "note": "[SDS]", "values": [{"measurement": "increasing the enzyme activity by a factor of", "setting": "alcohol oxidase", "result": 110, "unit": "%"}]}]}
